Results from ChEMBL document CHEMBL4043150, “Discovery of novel pyrazolo[1,5-a]pyridine-based EP1 receptor antagonists by scaffold hopping: Design, synthesis, and structure-activity relationships” (Bioorg Med Chem Lett, 2017).
pIC50: −log10 of the molar value. Calls of active or inactive are those of the source. No cut-off for these calls is given here.

Assays:
[1] = Aqueous solubility of compound; format: physicochemical; details: buffer
[2] = target: T1, Prostaglandin E2 receptor EP1 subtype (Rattus norvegicus, UniProt P70597); experiment: (§1) Antagonist activity at rat His-tagged EP1 receptor expressed in African green monkey COS1 cells assessed as reduction in PGE2-induced increase in intracellular calcium level preincubated for 60 secs followed by PGE2 addition measured for 60 secs by Fluo 4-AM dye-based fluorescence assay; format: functional, cell-based
T1 sequence (P70597 whole entry): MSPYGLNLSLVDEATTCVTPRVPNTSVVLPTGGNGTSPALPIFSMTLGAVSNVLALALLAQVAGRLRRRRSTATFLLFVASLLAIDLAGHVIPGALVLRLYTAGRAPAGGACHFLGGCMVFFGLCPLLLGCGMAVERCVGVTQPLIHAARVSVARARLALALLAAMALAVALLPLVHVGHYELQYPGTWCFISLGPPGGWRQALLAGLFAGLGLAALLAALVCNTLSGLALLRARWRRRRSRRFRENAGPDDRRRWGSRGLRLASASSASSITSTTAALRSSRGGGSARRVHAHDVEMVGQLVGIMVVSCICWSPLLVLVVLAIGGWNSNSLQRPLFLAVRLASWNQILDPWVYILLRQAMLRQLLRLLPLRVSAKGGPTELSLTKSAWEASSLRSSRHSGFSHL

[3] = target: T2, Prostaglandin E2 receptor EP1 subtype (Rattus norvegicus) (UniProt P70597); experiment: as §1, with “level at 10 uM” for “level”, “assay relative to control” for “assay”; format: functional, cell-based
T2 sequence (whole entry): T1 sequence (P70597 whole entry)

[4] = Initial plasma concentration in rat at 1 mg/kg, iv; format: ADME, organism-based
[5] = AUC (0 to infinity) in rat at 1 mg/kg, iv; format: ADME, organism-based; design: dose 1 mg/kg, time infinity, route intravenous; details: in vivo
Rattus norvegicus = experiment: Suppression of 17-PTP-induced bladder contraction in Wistar rat assessed as change in intravesical pressure at 1 mg/kg, iv pretreated for 5 mins followed by 17-PTP administration for 9 times with 30 mins time interval up to 245 mins post dose; format: functional, organism-based
[6] = Volume of distribution at steady state in rat at 1 mg/kg, iv; format: ADME, organism-based; details: in vivo, read-out: Vdss
[7] = Total clearance in rat at 1 mg/kg, iv; format: ADME, organism-based; details: in vivo

| SMILES | pIC50 [2] | further results |
| --- | --- | --- |
| Cc1cc(C(=O)O)nn1Cc1cc(Cl)cc2cc(-c3ccccc3)nn12 | – | solubility [1]: > 75 µM |
| O=C(O)c1cccc(Cc2c(-c3cccs3)nn3cc(Cl)ccc23)n1 | 5.96 | – |
| COc1ccccc1-c1nn2cc(Cl)ccc2c1Cc1cccc(C(=O)O)n1 | – | inhibition [3]: 29% |
| O=C(O)c1cccc(Cc2c(-c3ccc(Cl)cc3)nn3cc(Cl)ccc23)n1 | 5.96 | – |
| CC(C)Cc1nn2cc(Cl)ccc2c1Cc1cccc(C(=O)O)n1 | 6.70 | – |
| N#Cc1ccc2c(Cc3cccc(C(=O)O)n3)c(-c3ccccc3)nn2c1 | 6.36 | – |
| O=C(O)c1cccc(Cc2c(-c3ccoc3)nn3cc(Cl)ccc23)n1 | 6.89 | – |
| O=C(O)c1cccc(Cc2c(-c3ccccc3)nn3cc(C4CC4)ccc23)n1 | 6.72 | – |
| O=C(O)c1cccc(Cc2c(-c3ccsc3)nn3cc(Cl)ccc23)n1 | 6.96 | – |
| O=C(O)c1cccc(Cc2c(-c3cccc(Cl)c3)nn3cc(Cl)ccc23)n1 | 6.32 | – |
| O=C(O)c1cccc(Cc2c(N3CCCCCC3)nn3cc(Cl)ccc23)n1 | 5.85 | – |
| COc1ccc(-c2nn3cc(Cl)ccc3c2Cc2cccc(C(=O)O)n2)cc1 | 5.27 | – |
| COc1ccc2c(Cc3cncc(C(=O)O)n3)c(-c3ccccc3)nn2c1 | 5.35 | – |
| C=C(C)c1ccc2c(Cc3cccc(C(=O)O)n3)c(-c3ccccc3)nn2c1 | 6.54 | – |
| COc1cccc2c(Cc3cccc(C(=O)O)n3)c(-c3ccccc3)nn12 | – | inhibition [3]: 33% |
| O=C(O)c1cccc(Cc2c(-c3ccccc3)nn3cc(C(F)(F)F)ccc23)n1 | 7.80 | C0 [4]: 2430 ng/mL; AUC(0-inf) [5]: 4360 ng·h/mL; Activity (Rattus norvegicus): Active; Vd [6]: 0.473 L/kg; clearance [7]: 3.84 mL/min/kg |

| SMILES | pIC50 [2] | further results |
| --- | --- | --- |
| COc1ccn2nc(-c3ccccc3)c(Cc3cccc(C(=O)O)n3)c2c1 | 5.04 | – |
| COc1ccc2c(Cc3cccc(C(=O)O)n3)c(-c3ccccc3)nn2c1 | – | C0 [4]: 2660 ng/mL; AUC(0-inf) [5]: 2780 ng·h/mL; Activity (Rattus norvegicus): Active; Vd [6]: 0.45 L/kg; solubility [1]: > 75 µM; clearance [7]: 6.12 mL/min/kg |
| O=C(O)c1cccc(Cc2c(-c3ccccc3)nn3ccccc23)n1 | 5.64 | – |
| COc1cccc(-c2nn3cc(Cl)ccc3c2Cc2cccc(C(=O)O)n2)c1 | 6.10 | – |
| O=C(O)c1cccc(Cc2c(-c3ccco3)nn3cc(Cl)ccc23)n1 | 5.92 | – |
| O=C(O)c1cccc(Cc2c(N3CCOCC3)nn3cc(Cl)ccc23)n1 | 6.13 | – |
| CC(=O)c1ccc2c(Cc3cccc(C(=O)O)n3)c(-c3ccccc3)nn2c1 | 5.96 | – |
| O=C(O)c1cccc(Cc2c(-c3ccccc3Cl)nn3cc(Cl)ccc23)n1 | 6.19 | – |
| O=C(O)c1cccc(Cc2c(-c3ccccc3)nn3cc(F)ccc23)n1 | 6.42 | – |
| CS(=O)(=O)c1ccc2c(Cc3cccc(C(=O)O)n3)c(-c3ccccc3)nn2c1 | 5.27 | – |
| O=C(O)c1cccc(Cc2c(N3CCSCC3)nn3cc(Cl)ccc23)n1 | 6.59 | – |
| O=C(O)c1cccc(Cc2c(N3CCCC3)nn3cc(Cl)ccc23)n1 | 5.74 | – |
| O=C(O)c1cccc(Cc2c(C3CC3)nn3cc(Cl)ccc23)n1 | 5.82 | – |
| O=C(O)c1cccc(Cc2c(C3CCCCC3)nn3cc(Cl)ccc23)n1 | 5.92 | – |
| O=C(O)c1cccc(Cc2c(-c3ccccc3)nn3cc(Cl)ccc23)n1 | – | C0 [4]: 2750 ng/mL; AUC(0-inf) [5]: 1590 ng·h/mL; Activity (Rattus norvegicus): Active; Vd [6]: 0.489 L/kg; clearance [7]: 10.7 mL/min/kg |
